A short description of data set [1]: Metabolic stability test: liver microsomal stability assay. In kind it is in vitro ADME, mouse. Particulars: mouse liver microsomes 0.5 mg protein/mL, compound 1 µM; for microsomal CLint at 1 µM: male, pH 7.4, presence of NADPH, read-out: Mouse Hepatic Microsome CLh,int NADPH(+); for Mouse Hepatic Microsome CLh,int NADPH(-): absence of NADPH. How it is done: Under the presence and absence of NADPH, a microsome solution prepared to a concentration of 0.5 mg protein/mL using 100 mM phosphate buffer (pH 7.4) with mouse liver microsomes (male, Corning Incorporated, USA) and the compound at a concentration of 1 µM were subjected to a metabolic reaction for 22 minutes, 44 minutes, or 66 minutes. Protein removal processing was performed over time using acetonitrile, and the remaining amount of unchanged compound was analyzed using LCMS to calculate the intrinsic hepatic clearance (CLh, int) (Table 6).
For orientation: Microsomes from liver hold many membrane-bound enzymes, among them those of drug oxidation.

For data set [2], the system named is Caco-2 cells. The data set can be described thus: Membrane permeability test using Caco-2 cells with preincubation. In kind it is in vitro ADME. Particulars: preincubation 20 to 24 hours; for Caco2 Papp (10^-6 cm/sec): Caco-2 cells, apical FaSSIF/HBSS 1% DMSO pH 6.0, basal HBSS 4% BSA pH 7.4, basal sample at 180 minutes. Here is the method: (§1) The permeability coefficient (Caco-2 Papp (cm/sec)) is calculated using a numerical expression 1. [Expression 1] Papp = (1)/(C1 (0) × S) × (dQ)/(dt) [formula] dQ/dt represents the permeation rate of drug (the amount of drug appearing on the Basal side per unit time), S represents the total surface area of cells, and C1(0) represents the concentration of drug added on the Apical side.
(§2) Using a mixed medium of FaSSIF containing 1% DMSO and DMEM as the apical medium, and DMEM as the basal medium, Caco-2 cells and peptide compounds are preincubated for 20 to 24 hours under conditions of 5% CO2, 37°C, and 80 rpm. Afterward, the culture medium on the Apical side and the Basal side are aspirated and washed, the peptide compound was added to a FaSSIF/HBSS buffer solution containing 1% DMSO (1% DMSO) (pH 6.0) at the Apical side, a HBSS buffer solution containing 4% BSA (pH 7.4) was added to the Basal side, and measurement of membrane permeability is started. Each well is shaken under 5% CO2 at 37°C and 80 rpm, and at 180 minutes after the start of shaking, a sample on the Basal side is collected. The amount of peptide compounds in the sample was measured using LCMS, and the membrane permeability coefficient was calculated from the permeation amount (Table 7). When calculating the membrane permeability coefficient (Papp) from the permeation amount, the following expression can be used. Papp = (dQ)/(dt) × (1)/(C1 (0) × S) [formula]
(§3) dQ/dt represents the permeation rate of drug (the amount of drug appearing on the Basal side per unit time), C1(0) represents the concentration of drug added on the Apical side, and S represents the total surface area of cells.
A general note: Caco-2 cells form a polarised layer with tight junctions and transporters.

Test in data set [3]: as above
Type of data set: in vitro ADME. Particulars: Caco-2; preincubation 20 to 24 hours; Apical FaSSIF/HBSS pH 6.0, Basal HBSS 4% BSA pH 7.4; 180 minutes; read-out: Caco2 Papp. How it is done:
as §1, §2, §3

Starred links: 1 amine or outer side, 2 acyl side, 3 side chain; linkers in the order of their positions; H or OH if unused. Positions of bridges follow the written chain, without caps; N, C: chain ends. Non-standard residues stand in square brackets, D forms with d. Residues, ends and D or L forms follow the SMILES beside them. *: point of attachment. NMeF = CN[C@@H](Cc1ccccc1)C(=O)O; NMeGABA = CN(CCCC(=O)[*:2])[*:1]; NMeI = CC[C@H](C)[C@H](NC)C(=O)O; NMeβAla = CN(CCC(=O)[*:2])[*:1]; NMeL = CN[C@@H](CC(C)C)C(=O)O; NMeV = CN[C@H](C(=O)O)C(C)C; NMeAbu = CC[C@H](NC)C(=O)O; NMeA = CN[C@@H](C)C(=O)O; Piperidide = C1CCN(*)CC1; Abu = CC[C@H](N)C(=O)O; Sar = CNCC(=O)O; tBu = CC(C)(C)*

Turning to `CC[C@H](C)[C@H]1C(=O)N[C@@H](Cc2ccccc2)C(=O)N2CCC[C@H]2C(=O)N(C)[C@@H](CC(C)C)C(=O)N[C@@H](COC(C)(C)C)C(=O)N(C)[C@@H](Cc2ccccc2)C(=O)N[C@@H]([C@@H](C)O)C(=O)N(C)[C@@H](CC)C(=O)N2CCC[C@H]2C(=O)N(C)[C@@H](CC(C)C)C(=O)N(C)[C@@H](C(C)C)C(=O)N[C@H](C(=O)N2CCCCC2)CC(=O)N(C)CCCC(=O)N(C)[C@@H](CC(C)C)C(=O)N1C` [pd001] ([NMeGABA][NMeL][NMeI]FP[NMeL]S(tBu)[NMeF]T[NMeAbu]P[NMeL][NMeV]D-Piperidide; lactam N-14), in data set [1], the microsomal CLint at 1 µM turned out to be 34.2 µL/min/mg and the “Mouse Hepatic Microsome CLh,int NADPH(-)” value was 29.6 µL/min/mg Protein. Moreover, the “Caco2 Papp (10^-6 cm/sec)” value in data set [2] is recorded as 0.94 10^-6 cm/sec. Also, the Papp A→B in data set [3] came to 0.94 ×10⁻⁶ cm/s.
On to `CC[C@H](C)[C@@H]1NC(=O)[C@@H]2CCCN2C(=O)[C@H](CC(C)C)N(C)C(=O)[C@H](Cc2ccccc2)N(C)C(=O)[C@H]([C@@H](C)CC)N(C)C(=O)[C@H]([C@@H](C)O)NC(=O)[C@H](Cc2ccccc2)N(C)C(=O)[C@H](CC)N(C)C(=O)[C@H](C(C)C)NC(=O)[C@H](CC)N(C)C(=O)[C@H](CC(C)C)N(C)C(=O)[C@H](C)N(C)C(=O)C[C@@H](C(=O)N2CCCCC2)NC(=O)[C@H](C(C)C)N(C)C1=O` [pd002] ([NMeA][NMeL][NMeAbu]V[NMeAbu][NMeF]T[NMeI][NMeF][NMeL]PI[NMeV]D-Piperidide; lactam N-14), for which, in data set [1], the microsomal CLint at 1 µM stood at 34.2 µL/min/mg and the “Mouse Hepatic Microsome CLh,int NADPH(-)” value turned out to be 30.1 µL/min/mg Protein. Further, the “Caco2 Papp (10^-6 cm/sec)” value in data set [2] is 0.39 10^-6 cm/sec. The Papp A→B in data set [3] was determined as 0.39 ×10⁻⁶ cm/s.
Take `CC[C@H](C)[C@H]1C(=O)N[C@@H]([C@@H](C)O)C(=O)N(C)CC(=O)N(C)[C@@H](CC(C)C)C(=O)N(C)[C@@H](Cc2ccccc2)C(=O)N[C@H](C(=O)N2CCCCC2)CC(=O)N(C)[C@@H](C)C(=O)N[C@@H](CC(C)C)C(=O)N(C)[C@@H](Cc2ccccc2)C(=O)N(C)CCC(=O)N(C)[C@@H](CC(C)C)C(=O)N[C@@H](CC(C)C)C(=O)N(C)[C@@H](C)C(=O)N(C)[C@@H](CC)C(=O)N1C` [pd003] ([NMeA]L[NMeF][NMeβAla][NMeL]L[NMeA][NMeAbu][NMeI]T[Sar][NMeL][NMeF]D-Piperidide; lactam N-14): in data set [1], the microsomal CLint at 1 µM was 17.9 µL/min/mg and the “Mouse Hepatic Microsome CLh,int NADPH(-)” value is given as 19.0 µL/min/mg Protein. In data set [2], the “Caco2 Papp (10^-6 cm/sec)” value is 0.27 10^-6 cm/sec. The Papp A→B in data set [3] turned out to be 0.27 ×10⁻⁶ cm/s.
Take `CC[C@H](C)[C@@H]1NC(=O)[C@H](C)N(C)C(=O)C[C@@H](C(=O)N2CCCCC2)NC(=O)[C@H](CC)N(C)C(=O)[C@H](COC(C)(C)C)NC(=O)[C@H](CC(C)C)N(C)C(=O)[C@H](C)N(C)C(=O)[C@H](CC(C)C)N(C)C(=O)[C@H](Cc2ccccc2)N(C)C(=O)CN(C)C(=O)[C@H]([C@@H](C)O)NC(=O)[C@H](CC(C)C)N(C)C(=O)[C@H](C(C)C)N(C)C(=O)[C@H](Cc2ccccc2)N(C)C1=O` [pd004] ([NMeA]I[NMeF][NMeV][NMeL]T[Sar][NMeF][NMeL][NMeA][NMeL]S(tBu)[NMeAbu]D-Piperidide; lactam N-14): in data set [1], the microsomal CLint at 1 µM is 36.2 µL/min/mg and the “Mouse Hepatic Microsome CLh,int NADPH(-)” value is given as 27.4 µL/min/mg Protein. The “Caco2 Papp (10^-6 cm/sec)” value in data set [2] was 0.82 10^-6 cm/sec. Further, the Papp A→B in data set [3] came to 0.82 ×10⁻⁶ cm/s.
As to `CC[C@@H]1NC(=O)[C@H]([C@@H](C)CC)NC(=O)[C@H](Cc2ccccc2)N(C)C(=O)[C@H](CC(C)C)N(C)C(=O)[C@H](CC(C)C)NC(=O)CCN(C)C(=O)C[C@@H](C(=O)N2CCCCC2)NC(=O)[C@H](C(C)C)NC(=O)[C@H](CC(C)C)N(C)C(=O)[C@H](C)N(C)C(=O)[C@H](C(C)C)NC(=O)[C@H](CC(C)C)N(C)C(=O)[C@H](COC(C)(C)C)NC(=O)[C@H](Cc2ccccc2)N(C)C1=O` [pd015] ([NMeβAla]L[NMeL][NMeF]I[Abu][NMeF]S(tBu)[NMeL]V[NMeA][NMeL]VD-Piperidide; lactam N-14), in data set [1], the microsomal CLint at 1 µM is 32.5 µL/min/mg and the “Mouse Hepatic Microsome CLh,int NADPH(-)” value was 26.2 µL/min/mg Protein. Also, the “Caco2 Papp (10^-6 cm/sec)” value in data set [2] is listed as 0.04 10^-6 cm/sec. In data set [2] (Apical FaSSIF/HBSS pH 6.0, Basal HBSS 4% BSA pH 7.4, 180 minutes), the “Caco2 Papp” value was 0.04 10^-6 cm/sec.

These data come from EP4768499A1, “MACROCYCLIC PEPTIDE COMPOUND HAVING CELL MEMBRANE PERMEABILITY AND METABOLIC STABILITY, AND LIBRARY CONTAINING SAME” (Chugai Seiyaku Kabushiki Kaisha, priority 2023, dated 2025).
